# Results from patent publication US10730911B2, “Backbone-cyclized peptidomimetics with GLP-1R modulating activity” (POLYPHOR AG, priority 2015, dated 2020).
# Where a SMILES comes first, the peptide text is derived from it. [ ]: non-standard residue; d: D form. Phe(4-CN) = N#Cc1ccc(C[C@H](N)C(=O)O)cc1; 3Pal = N[C@@H](Cc1cccnc1)C(=O)O; Cit = NC(=O)NCCC[C@H](N)C(=O)O; Ac6c = NC1(C(=O)O)CCCCC1; Ac5c = NC1(C(=O)O)CCCC1; Aib = CC(C)(N)C(=O)O
# Target: T1, human glucagon-like peptide-1 receptor (GLP-1R) (Homo sapiens, UniProt P43220)
# T1 construct: host or cells: CHO chAMPion cells
# Assay: Human GLP-1 receptor cell-based assay (flash luminescence, Target Activation phase)
# Settings: CHO chAMPion cells stably co-expressing human GLP-1R, Photina and cAMP-activated calcium channel; agonist activity; normalization by forskolin at 10 μM; ^a) values from single experiment; read-out: EC50 (μM) Target Activation (TA)
# Outline: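 CHO cells co-expressing human GLP-1R, photoprotein and a cAMP-gated Ca2+ channel, preloaded 4 h with coelenterazine and 500 μM IBMX. Compounds at 8 concentrations from 50 μM, quadruplicate; 30 min later 10 mM CaCl2 added and flash luminescence read. EC50 normalized to 10 μM forskolin or 3.16 nM GLP-1.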
# T1 sequence (P43220 24-463): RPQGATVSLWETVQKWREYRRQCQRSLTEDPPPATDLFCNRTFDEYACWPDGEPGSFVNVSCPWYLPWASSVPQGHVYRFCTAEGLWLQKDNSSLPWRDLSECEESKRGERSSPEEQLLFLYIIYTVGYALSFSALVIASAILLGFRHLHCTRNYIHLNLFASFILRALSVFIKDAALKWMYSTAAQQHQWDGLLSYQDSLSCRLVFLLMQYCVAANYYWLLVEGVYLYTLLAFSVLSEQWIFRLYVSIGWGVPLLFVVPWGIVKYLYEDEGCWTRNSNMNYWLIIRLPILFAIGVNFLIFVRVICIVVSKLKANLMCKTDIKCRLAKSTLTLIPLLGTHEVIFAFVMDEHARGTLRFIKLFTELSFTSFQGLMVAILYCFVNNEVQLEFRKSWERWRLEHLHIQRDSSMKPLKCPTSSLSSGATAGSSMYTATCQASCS
row,Structure (SMILES),EC50 [µM]
1,"CC(C)C[C@@H]1NC(=O)[C@H](CCC(=O)O)NC(=O)[C@H](Cc2ccccc2)NC(=O)C2(CCCCC2)NC(=O)[C@H]2CCCN2C(=O)[C@H](CCCNC(=N)N)NC(=O)[C@H](CCC(=O)O)NC(=O)[C@H](Cc2c[nH]c3ccccc23)NC(=O)[C@H](C)NC(=O)[C@H](Cc2ccc(O)cc2)NC1=O [compound 42, cyclo(-Phe-Glu-Leu-Tyr-Ala-Trp-Glu-Arg-^DPro-Chx-)] (cyclo(FELYAWER[dP][Ac6c]))",2.2 ± 1
2,"CC(C)C[C@@H]1NC(=O)[C@H](CC(C)C)NC(=O)[C@H](CCC(=O)O)NC(=O)[C@H](Cc2ccccc2)NC(=O)C2(CCCC2)NC(=O)[C@H]2CCCN2C(=O)[C@H](Cc2ccccc2)NC(=O)[C@H](CCC(=O)O)NC(=O)[C@H](Cc2c[nH]c3ccccc23)NC(=O)[C@H](C)NC1=O [compound 44, cyclo(-Phe-Glu-Leu-Leu-Ala-Trp-Glu-Phe-^DPro-Cyp-)] (cyclo(FELLAWEF[dP][Ac5c]))",2.9 ± 0.7
3,"CC(C)C[C@@H]1NC(=O)[C@H](CC(C)C)NC(=O)[C@H](CCC(=O)O)NC(=O)[C@H](Cc2ccccc2)NC(=O)C(C)(C)NC(=O)[C@H]2CCCN2C(=O)[C@H](Cc2ccccc2)NC(=O)[C@H](CCC(=O)O)NC(=O)[C@H](Cc2c[nH]c3ccccc23)NC(=O)[C@H](C)NC1=O [compound 45, cyclo(-Phe-Glu-Leu-Leu-Ala-Trp-Glu-Phe-^DPro-Aib-)] (cyclo(FELLAWEF[dP][Aib]))",1.8

# The next molecules have a lower EC50 than those just listed; values first:
row,EC50 [µM],Structure (SMILES)
1,0.88,"CC(C)C[C@@H]1NC(=O)[C@H](CCC(=O)O)NC(=O)[C@H](Cc2ccccc2)NC(=O)C2(CCCCC2)NC(=O)[C@H]2CCCN2C(=O)[C@H](Cc2ccc(O)cc2)NC(=O)[C@H](CCC(=O)O)NC(=O)[C@H](Cc2c[nH]c3ccccc23)NC(=O)[C@H](C)NC(=O)[C@H](Cc2ccc(C#N)cc2)NC1=O [compound 37, cyclo(-Phe-Glu-Leu-Phe(4CN)-Ala-Trp-Glu-Tyr-^DPro-Chx-)] (cyclo(FEL[Phe(4-CN)]AWEY[dP][Ac6c]))"
2,0.93,"CC(C)C[C@@H]1NC(=O)[C@H](CCC(=O)O)NC(=O)[C@H](Cc2ccccc2)NC(=O)C2(CCCCC2)NC(=O)[C@H]2CCCN2C(=O)[C@H](Cc2ccc(O)cc2)NC(=O)[C@H](CCCNC(N)=O)NC(=O)[C@H](Cc2c[nH]c3ccccc23)NC(=O)[C@H](C)NC(=O)[C@H](Cc2ccc(O)cc2)NC1=O [compound 38, cyclo(-Phe-Glu-Leu-Tyr-Ala-Trp-Cit-Tyr-^DPro-Chx-)] (cyclo(FELYAW[Cit]Y[dP][Ac6c]))"
3,1 ± 0.1,"CC(C)C[C@@H]1NC(=O)[C@H](CCC(=O)O)NC(=O)[C@H](Cc2ccccc2)NC(=O)C2(CCCCC2)NC(=O)[C@H]2CCCN2C(=O)[C@H](Cc2c[nH]cn2)NC(=O)[C@H](CCC(=O)O)NC(=O)[C@H](Cc2c[nH]c3ccccc23)NC(=O)[C@H](C)NC(=O)[C@H](Cc2ccc(O)cc2)NC1=O [compound 39, cyclo(-Phe-Glu-Leu-Tyr-Ala-Trp-G lu-H is-^DP ro-Chx-)] (cyclo(FELYAWEH[dP][Ac6c]))"
4,1.2 ± 0.6,"CC(C)C[C@@H]1NC(=O)[C@H](CCC(N)=O)NC(=O)[C@H](Cc2ccccc2)NC(=O)C2(CCCCC2)NC(=O)[C@H]2CCCN2C(=O)[C@H](Cc2ccc(O)cc2)NC(=O)[C@H](CCC(=O)O)NC(=O)[C@H](Cc2c[nH]c3ccccc23)NC(=O)[C@H](C)NC(=O)[C@H](Cc2ccc(O)cc2)NC1=O [compound 40, cyclo(-Phe-Gln-Leu-Tyr-Ala-Trp-Glu-Tyr-^DPro-Chx-)] (cyclo(FQLYAWEY[dP][Ac6c]))"
5,0.83 ± 0.6,"CC(C)C[C@@H]1NC(=O)[C@H](CCC(=O)O)NC(=O)[C@H](Cc2ccccc2)NC(=O)C2(CCCCC2)NC(=O)[C@H]2CCCN2C(=O)[C@H](Cc2cccnc2)NC(=O)[C@H](CCC(=O)O)NC(=O)[C@H](Cc2c[nH]c3ccccc23)NC(=O)[C@H](C)NC(=O)[C@H](Cc2ccc(O)cc2)NC1=O [compound 41, cyclo(-Phe-Glu-Leu-Tyr-Ala-Trp-Glu-3Pal-^DPro-Chx-)] (cyclo(FELYAWE[3Pal][dP][Ac6c]))"
